No end group written: not given here.
Tests used:
Type in all cases: in vivo, BALB/c nude mice
Conditions in all cases: for in vivo tumor growth inhibition rate: mouse, 15 mg/kg
[1] = system: A549 cells of lung cancer
Protocol: (§1) • (1) Massively culture SCC4 cells of head and neck cancer, SW579 cells of thyroid cancer, A549 cells of lung cancer, TE13 cells of esophageal squamous cell carcinoma, MGC803 cells of stomach cancer, MDA-MB-231 cells of breast cancer, UOK262 cells of kidney cancer, and A431 cells of skin cancer of human, digest with a 0.25% pancreatin solution, centrifuge the cell suspension at 1,000 rpm for 5 min after termination of digestion, re-suspend the cells by serum-free DMEM culture medium, then count the cells and adjust cell concentration to 5×10^7 cells/ml; • (2) Inoculate each nude mouse (female mice at the age of 4-6 weeks and with a weight of 14-16 g were ordered and adaptively reared for 1 week in an SPF animal breeding room) with 100 μl of the cell suspension of the corresponding group in the left armpit, and the number of cells injected is 5×10^6; • (3) After inoculation, the tumor growth at the inoculation sites of nude mice was closely observed. On the 7th day after inoculation, white scabs appeared at the inoculation sites, which could move subcutaneously after being touched. With the growth of tumor tissue, hard tumor masses were gradually formed at the inoculation sites. On about the 14th day, the average volume of the tumor tissue reached 100 mm^3. BALB/c nude mice were randomly divided into three groups (the normal saline group was a blank control group, the micropeptide HMMW at a dose of 10 mg/kg was a low-dose group, and the micropeptide HMMW at a dose of 15 mg/kg was a high-dose group), 6 mice in each group, and the animals weighed 16-18 g at the beginning of administration; • (4) The volume of the transplanted tumor was measured and recorded every two days. The calculation formula of tumor volume (TV) is shown below: TV=0.5×a×b^2 • where, a is the length of the transplanted tumor (mm), and b is the width of the transplanted tumor (mm). • (1) Massively culture SCC4 cells of head and neck cancer, SW579 cells of thyroid cancer, A549 cells of lung cancer, TE13 cells of esophageal squamous cell carcinoma, MGC803 cells of stomach cancer, MDA-MB-231 cells of breast cancer, UOK262 cells of kidney cancer, and A431 cells of skin cancer of human, digest with a 0.25% pancreatin solution, centrifuge the cell suspension at 1,000 rpm for 5 min after termination of digestion, re-suspend the cells by serum-free DMEM culture medium, then count the cells and adjust cell concentration to 5×10^7 cells/ml; • (2) Inoculate each nude mouse (female mice at the age of 4-6 weeks and with a weight of 14-16 g were ordered and adaptively reared for 1 week in an SPF animal breeding room) with 100 μl of the cell suspension of the corresponding group in the left armpit, and the number of cells injected is 5×10^6; • (3) After inoculation, the tumor growth at the inoculation sites of nude mice was closely observed. On the 7th day after inoculation, white scabs appeared at the inoculation sites, which could move subcutaneously after being touched. With the growth of tumor tissue, hard tumor masses were gradually formed at the inoculation sites. On about the 14th day, the average volume of the tumor tissue reached 100 mm^3. BALB/c nude mice were randomly divided into three groups (the normal saline group was a blank control group, and each of micropeptides HMMW I to IX formed a group at a dose of 15 mg/kg), 6 mice in each group, and the animals weighed 16-18 g at the beginning of administration; • (4) The volume of the transplanted tumor was measured and recorded every two days. The calculation formula of tumor volume (TV) is shown below: TV=0.5×a×b^2 • where, a is the length of the transplanted tumor (mm), and b is the width of the transplanted tumor (mm).

[2] = system: TE13 cells of esophageal squamous cell carcinoma
Protocol: as §1

[3] = system: MDA-MB-231 cells of breast cancer
Protocol: as §1

[4] = system: UOK262 cells of kidney cancer
Protocol: as §1

[5] = system: A431 cells of skin cancer
Protocol: as §1

[6] = system: MGC803 cells of stomach cancer
Protocol: as §1

[7] = system: SW579 cells of thyroid cancer
Protocol: as §1

[8] = system: SCC4 cells of head and neck cancer
Protocol: as §1

Row | Substance | in vivo tumor growth inhibition rate [1] [%] | in vivo tumor growth inhibition rate [2] [%] | in vivo tumor growth inhibition rate [3] [%] | in vivo tumor growth inhibition rate [4] [%] | in vivo tumor growth inhibition rate [5] [%] | in vivo tumor growth inhibition rate [6] [%] | in vivo tumor growth inhibition rate [7] [%] | in vivo tumor growth inhibition rate [8] [%] | inhibition of tumorigenicity in vivo ([1]; A549, nude mice, 10 and 15 mg/kg, vs normal saline, dose-dependent (Embodiment 6)) | inhibition of tumorigenicity in vivo ([2]; TE13, nude mice, 10 and 15 mg/kg, vs normal saline, dose-dependent (Embodiment 6)) | inhibition of tumorigenicity in vivo ([3]; MDA-MB-231, nude mice, 10 and 15 mg/kg, vs normal saline, dose-dependent (Embodiment 6)) | inhibition of tumorigenicity in vivo ([4]; UOK262, nude mice, 10 and 15 mg/kg, vs normal saline, dose-dependent (Embodiment 6)) | inhibition of tumorigenicity in vivo ([5]; A431, nude mice, 10 and 15 mg/kg, vs normal saline, dose-dependent (Embodiment 6)) | inhibition of tumorigenicity in vivo ([6]; MGC803, nude mice, 10 and 15 mg/kg, vs normal saline, dose-dependent (Embodiment 6)) | inhibition of tumorigenicity in vivo ([7]; SW579, nude mice, 10 and 15 mg/kg, vs normal saline, dose-dependent (Embodiment 6)) | inhibition of tumorigenicity in vivo ([8]; SCC4, nude mice, 10 and 15 mg/kg, vs normal saline, dose-dependent (Embodiment 6))
1 | MGSTYNPGFSPRRSSVEAKMQSTSCSVRKSSTVTAWPAVVLLLSWGQRRGG-OH [HMMW-V] | 71.12 | 63.46 | 67.75 | 64.16 | 69.41 | 71.04 | 70.78 | 67.14 |  |  |  |  |  |  |  | 
2 | MERAGVPGFSPRRSSVEAKMQSTSCSVRKSSTVTAWPAVVLLLHTSKDDEE-OH [HMMW-II] | 71.32 | 62.86 | 68.95 | 63.12 | 71.22 | 70.08 | 64.76 | 66.24 |  |  |  |  |  |  |  | 
3 | MGSTYNKRHSPRRSSVEAKMQSTSCSVRKSSTVTAWPAVVLLLSWGQRRGG-OH [HMMW-III] | 73.08 | 66.31 | 69.49 | 61.67 | 69.54 | 69.62 | 71.89 | 70.84 |  |  |  |  |  |  |  | 
4 | MERAGVPGFSPRRSSVEAKMQSTSCSVRKSSTVTAWPAVVLLLSWGQRRGE-OH [HMMW-VIII] | 69.30 | 68.81 | 69.82 | 65.15 | 68.21 | 69.38 | 71.76 | 68.24 |  |  |  |  |  |  |  | 
5 | MERAGVPGFSPRRSSVEAKMQSTSCSVRKSSTVTAWPAVVLLLSWGQRDEE-OH [HMMW-VI] | 65.27 | 65.56 | 71.18 | 65.19 | 68.25 | 66.51 | 66.79 | 73.54 |  |  |  |  |  |  |  | 
6 | MERAGVPGFSPRRSSVEAKMQSTSCSVRKSSTVTAWPAVVLLLSWGQRRGG-OH [HMMW-I] | 69.23 | 65.43 | 67.97 | 63.80 | 62.74 | 68.12 | 66.63 | 72.56 | significantly inhibit | significantly inhibit | significantly inhibit | significantly inhibit | significantly inhibit | significantly inhibit | significantly inhibit | significantly inhibit
7 | MGSTGVPGFSPRRSSVEAKMQSTSCSVRKSSTVTAWPAVVLLLSWGQRRGG-OH [HMMW-VII] | 69.13 | 71.23 | 68.91 | 64.37 | 67.70 | 65.11 | 68.63 | 72.75 |  |  |  |  |  |  |  | 
8 | MERAGVPGFSPRRSSVEAKMQSTSCSVRKSSTVTAWPAVVLLLSWGKDDEE-OH [HMMW-IV] | 68.25 | 61.41 | 65.93 | 64.70 | 71.71 | 67.52 | 72.13 | 71.72 |  |  |  |  |  |  |  | 
9 | MGRAGVPGFSPRRSSVEAKMQSTSCSVRKSSTVTAWPAVVLLLSWGQRRGG-OH [HMMW-IX] | 69.09 | 65.31 | 69.36 | 65.23 | 64.33 | 68.61 | 67.89 | 71.84 |  |  |  |  |  |  |  | 
